From US12594276B2, “Inhibitors of human immunodeficiency virus replication” (ViiV Healthcare UK (No.5) Limited, priority 2024, dated 2026) come the findings set out here.

The test system of data set [1] is recombinant NL4-3 virus (nef section replaced with Renilla luciferase gene) in MT-2 cells. The experiment in a line: HIV cell culture assay (antiviral activity, luciferase readout). It is filed as cell-based. Particulars: Renilla, NL43, MT-2 cells infected for 4-5 days with recombinant NL4-3 Renilla luciferase virus. Summed up: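 Reporter virus is produced in 293T cells and its titer set in MT-2 cells by luciferase activity. MT-2 cells are then infected in the presence of serially diluted compound for 4-5 days. Luciferase is quantified and EC50 fitted to the median effect equation.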

Data set [2] in a line: Compound cytotoxicity, XTT-based colorimetric assay. It is filed as cell-based. Particulars: human; uninfected MT2 cells, day 4, XTT; read-out: CC50. Summed up: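 CC50 derived from XTT colorimetric signal measured on day 4 in MT2 cells that were not infected. All other steps followed the antiviral assay protocol.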

Some results are limits rather than exact numbers.

For the molecule `CC1(C)CN(CCn2nc(NS(C)(=O)=O)c3c(Cl)ccc(-n4c([C@H](Cc5cc(F)cc(F)c5)NC(=O)Cn5nc(C6CC6)c6c5C[C@@H]5C[C@H]65)nc5nc(C6CCC(F)(F)CC6)cc(C(F)F)c5c4=O)c32)CC(C)(C)O1` (atropisomer, axis not shown; (P)) [Example 421, N-[(1S)-1-[(3P)-3-{4-chloro-3-methanesulfonamido-1-[2-(2,2,6,6-tetramethylmorpholin-4-yl)ethyl]-1H-indazol-7-yl}-7-(4,4-difluorocyclohexyl)-5-(difluoromethyl)-4-oxo-3H,4H-pyrido[2,3-d]pyrimidin-2-yl]-2-(3,5-difluorophenyl)ethyl]-2-[(2S,4S)-9-cyclopropyl-7,8-diazatricyclo[4.3.0.0^2,^4]nona-1(6),8-dien-7-yl]acetamide], the EC50 in data set [1] came to 0.012 nM. Moreover, the CC50 at 4 days in data set [2] was > 20 nM.

Regarding `CC1(C)CN(CCn2nc(NS(C)(=O)=O)c3c(Cl)ccc(-n4c([C@H](Cc5cc(F)cc(F)c5)NC(=O)Cn5nc(C6CC6)c6c5C[C@@H]5C[C@H]65)nc5nc(C6CCC(F)(F)CC6)ccc5c4=O)c32)CC(C)(C)O1` (atropisomer, axis not shown; (P)) [Example 424, N-[(1S)-1-[(3P)-3-{4-chloro-3-methanesulfonamido-1-[2-(2,2,6,6-tetramethylmorpholin-4-yl)ethyl]-1H-indazol-7-yl}-7-(4,4-difluorocyclohexyl)-4-oxo-3H,4H-pyrido[2,3-d]pyrimidin-2-yl]-2-(3,5-difluorophenyl)ethyl]-2-[(2S,4S)-9-cyclopropyl-7,8-diazatricyclo[4.3.0.0^2,^4]nona-1(6),8-dien-7-yl]acetamide], the EC50 in data set [1] amounted to 0.012 nM. The CC50 at 4 days in data set [2] was > 20 nM.

Take `CCNc1cc(C2CCC(F)(F)CC2)nc2nc([C@H](Cc3cc(F)cc(F)c3)NC(=O)Cn3nc(C(F)F)c4c3C(F)(F)[C@@H]3C[C@H]43)n(-c3ccc(Cl)c4c(NS(C)(=O)=O)nn(CCCOC)c34)c(=O)c12` (atropisomer, axis not shown; (P)) [Example 427, N-[(1S)-1-[(3P)-3-[4-chloro-3-methanesulfonamido-1-(3-methoxypropyl)-1H-indazol-7-yl]-7-(4,4-difluorocyclohexyl)-5-(ethylamino)-4-oxo-3H,4H-pyrido[2,3-d]pyrimidin-2-yl]-2-(3,5-difluorophenyl)ethyl]-2-[(2S,4R)-9-(difluoromethyl)-5,5-difluoro-7,8-diazatricyclo[4.3.0.0^2,4]nona-1(6),8-dien-7-yl]acetamide]: the EC50 in data set [1] is 0.01 nM. Besides, in data set [2], the CC50 at 4 days is > 20 nM.

`COCCCn1nc(NS(C)(=O)=O)c2c(Cl)ccc(-n3c([C@H](Cc4cc(F)cc(F)c4)NC(=O)Cn4nc(C(F)F)c5c4C(F)(F)[C@@H]4C[C@H]54)nc4nc(C5CCC(F)(F)CC5)cc(NC[C@@H]5CCCOC5)c4c3=O)c21` (atropisomer, axis not shown; (P)) [Example 428, N-[(1S)-1-[(3P)-3-[4-chloro-3-methanesulfonamido-1-(3-methoxypropyl)-1H-indazol-7-yl]-7-(4,4-difluorocyclohexyl)-5-({[(3S)-oxan-3-yl]methyl}amino)-4-oxo-3H,4H-pyrido[2,3-d]pyrimidin-2-yl]-2-(3,5-difluorophenyl)ethyl]-2-[(2S,4R)-9-(difluoromethyl)-5,5-difluoro-7,8-diazatricyclo[4.3.0.0^2,^4]nona-1(6),8-dien-7-yl]acetamide]: the EC50 in data set [1] was found to be 0.02 nM. In data set [2], the half-maximal cytotoxic concentration (CC50) at 4 days was > 20 nM.

With `COCCCn1nc(NS(C)(=O)=O)c2c(Cl)ccc(-n3c([C@H](Cc4cc(F)cc(F)c4)NC(=O)Cn4nc(C(F)F)c5c4C(F)(F)[C@@H]4C[C@H]54)nc4nc(C5CCC(F)(F)CC5)cc(NCCN5CCCC5)c4c3=O)c21` (atropisomer, axis not shown; (P)) [Example 429, N-[(1S)-1-[(3P)-3-[4-chloro-3-methanesulfonamido-1-(3-methoxypropyl)-1H-indazol-7-yl]-7-(4,4-difluorocyclohexyl)-4-oxo-5-{[2-(pyrrolidin-1-yl)ethyl]amino}-3H,4H-pyrido[2,3-d]pyrimidin-2-yl]-2-(3,5-difluorophenyl)ethyl]-2-[(2S,4R)-9-(difluoromethyl)-5,5-difluoro-7,8-diazatricyclo[4.3.0.0^2,^4]nona-1(6),8-dien-7-yl]acetamide], in data set [1], the EC50 is 0.019 nM. In addition, the CC50 at 4 days in data set [2] was > 20 nM.

`COCCCn1nc(NS(C)(=O)=O)c2c(Cl)ccc(-n3c([C@H](Cc4cc(F)cc(F)c4)NC(=O)Cn4nc(C(F)F)c5c4C(F)(F)[C@@H]4C[C@H]54)nc4nc(C5CCC(F)(F)CC5)cc(NCCN5CCOCC5)c4c3=O)c21` (atropisomer, axis not shown; (P)) [Example 430, N-[(1S)-1-[(3P)-3-[4-chloro-3-methanesulfonamido-1-(3-methoxypropyl)-1H-indazol-7-yl]-7-(4,4-difluorocyclohexyl)-5-{[2-(morpholin-4-yl)ethyl]amino}-4-oxo-3H,4H-pyrido[2,3-d]pyrimidin-2-yl]-2-(3,5-difluorophenyl)ethyl]-2-[(2S,4R)-9-(difluoromethyl)-5,5-difluoro-7,8-diazatricyclo[4.3.0.0^2,^4]nona-1(6),8-dien-7-yl]acetamide]: the EC50 in data set [1] is 0.011 nM. Also, in data set [2], the CC50 at 4 days is > 20 nM.

Regarding `COCCCn1nc(NS(C)(=O)=O)c2c(Cl)ccc(-n3c([C@H](Cc4cc(F)cc(F)c4)NC(=O)Cn4nc(C(F)F)c5c4C(F)(F)[C@@H]4C[C@H]54)nc4nc(C5CCC(F)(F)CC5)cc(NCC5CCOCC5)c4c3=O)c21` (atropisomer, axis not shown; (P)) [Example 431, N-[(1S)-1-[(3P)-3-[4-chloro-3-methanesulfonamido-1-(3-methoxypropyl)-1H-indazol-7-yl]-7-(4,4-difluorocyclohexyl)-5-{[(oxan-4-yl)methyl]amino}-4-oxo-3H,4H-pyrido[2,3-d]pyrimidin-2-yl]-2-(3,5-difluorophenyl)ethyl]-2-[(2S,4R)-9-(difluoromethyl)-5,5-difluoro-7,8-diazatricyclo[4.3.0.0^2,^4]nona-1(6),8-dien-7-yl]acetamide], the EC50 in data set [1] was found to be 0.01 nM. The CC50 at 4 days in data set [2] is > 20 nM.

`COCCCn1nc(NS(C)(=O)=O)c2c(Cl)ccc(-n3c([C@H](Cc4cc(F)cc(F)c4)NC(=O)Cn4nc(C(F)F)c5c4C(F)(F)[C@@H]4C[C@H]54)nc4nc(C5CCC(F)(F)CC5)cc(NCCNC(C)=O)c4c3=O)c21` (atropisomer, axis not shown; (P)) [Example 432, N-[(1S)-1-[(3P)-3-[4-chloro-3-methanesulfonamido-1-(3-methoxypropyl)-1H-indazol-7-yl]-7-(4,4-difluorocyclohexyl)-5-[(2-acetamidoethyl)amino]-4-oxo-3H,4H-pyrido[2,3-d]pyrimidin-2-yl]-2-(3,5-difluorophenyl)ethyl]-2-[(2S,4R)-9-(difluoromethyl)-5,5-difluoro-7,8-diazatricyclo[4.3.0.0^2,^4]nona-1(6),8-dien-7-yl]acetamide]: the concentration giving a half-maximal response (EC50) in data set [1] is 0.182 nM. Besides, the cytotoxic concentration (CC50) at 4 days in data set [2] was > 20 nM.

The term EC50 denotes the concentration needed to bring the measured effect to its halfway point. Broadly, the CC50 is the concentration giving 50% cytotoxicity.
